From ChEMBL document CHEMBL1201862, “PubChem BioAssay data set” (2004)
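Growth conditions: 96-well plates. Treatment: test compound, 48 hours, 5 concentrations. Analysis: linear interpolation between bracketing concentrations; unreached endpoints set to highest concentration. GI50 = concentration required for 50% inhibition of growth.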 Active and inactive are the calls of the source. No stated cut-off is given here; in the data, active = GI50 up to about 1.1 µM and inactive = higher.

Legend:
Assay in all cases: NCI tumour cell line growth inhibition, 48 h
NCI-H522 = tested on: NCI-H522
OVCAR-3 = tested on: OVCAR-3
DU-145 = tested on: DU-145
NCI/ADR-RES = tested on: NCI/ADR-RES
COLO 205 = tested on: COLO 205
MCF7 = tested on: MCF7
SK-MEL-28 = tested on: SK-MEL-28
OVCAR-4 = tested on: OVCAR-4
SR = tested on: SR
T47D = tested on: T47D
RXF 393 = tested on: RXF 393
OVCAR-5 = tested on: OVCAR-5
Hs-578T = tested on: Hs-578T
HCT-116 = tested on: HCT-116
HT-29 = tested on: HT-29
HCC 2998 = tested on: HCC 2998
LOX IMVI = tested on: LOX IMVI
786-0 = tested on: 786-0
MDA-N = tested on: MDA-N

Row | SMILES | GI50 (NCI-H522) | GI50 (OVCAR-3) | GI50 (DU-145) | GI50 (NCI/ADR-RES) | GI50 (COLO 205) | GI50 (MCF7) | GI50 (SK-MEL-28) | GI50 (OVCAR-4) | GI50 (SR) | GI50 (T47D) | GI50 (RXF 393) | GI50 (OVCAR-5) | GI50 (Hs-578T) | GI50 (HCT-116) | GI50 (HT-29) | GI50 (HCC 2998) | GI50 (LOX IMVI) | GI50 (786-0) | GI50 (MDA-N)
1 | CO/C(=N\N=C(/c1ccccc1)C(F)(F)F)c1ccncc1 | 26.6 µM (inactive) | 37.8 µM (inactive) | 44.5 µM (inactive) | 20.3 µM (inactive) | 28.7 µM (inactive) | 38.6 µM (inactive) | 57.7 µM (inactive) | 80.7 µM (inactive) | 54.6 µM (inactive) | 35.2 µM (inactive) | 16.3 µM (inactive) | > 100 µM (inactive) | 49.2 µM (inactive) | 28.3 µM (inactive) | 42.8 µM (inactive) | – | – | – | –
2 | O=C(/C=C/c1ccccc1O)c1cccs1 | > 100 µM (inactive) | > 100 µM (inactive) | – | – | > 100 µM (inactive) | – | > 100 µM (inactive) | > 100 µM (inactive) | > 100 µM (inactive) | – | > 100 µM (inactive) | > 100 µM (inactive) | – | > 100 µM (inactive) | > 100 µM (inactive) | > 100 µM (inactive) | > 100 µM (inactive) | > 100 µM (inactive) | –
3 | COc1ccc(C2=CC3CCC2C3)cc1 (stereo unspecified) | > 100 µM (inactive) | > 100 µM (inactive) | – | – | > 100 µM (inactive) | – | > 100 µM (inactive) | > 100 µM (inactive) | > 100 µM (inactive) | – | > 100 µM (inactive) | > 100 µM (inactive) | – | > 100 µM (inactive) | > 100 µM (inactive) | – | > 100 µM (inactive) | > 100 µM (inactive) | –
4 | C=C1CC(C)(c2ccc(Nc3nc4ccccc4c4occc34)cc2)OC1=O (stereo unspecified) | – | 3.74 µM (inactive) | 8.13 µM (inactive) | 4.44 µM (inactive) | 3.59 µM (inactive) | 3.32 µM (inactive) | 13.9 µM (inactive) | 1.77 µM (inactive) | 1.63 µM (inactive) | 3.03 µM (inactive) | 2.08 µM (inactive) | 14.1 µM (inactive) | – | 1.34 µM (inactive) | 3.61 µM (inactive) | 2.32 µM (inactive) | 1.95 µM (inactive) | 2.16 µM (inactive) | 3.29 µM (inactive)
5 | O=C1NN=C(c2ccc([N+](=O)[O-])cc2)C1n1nc(-c2ccccc2)c2ccccc2c1=O (stereo unspecified) | > 100 µM (inactive) | > 100 µM (inactive) | – | – | > 60.8 µM (inactive) | – | > 100 µM (inactive) | > 100 µM (inactive) | > 68.2 µM (inactive) | – | > 100 µM (inactive) | > 100 µM (inactive) | – | > 63.8 µM (inactive) | > 100 µM (inactive) | > 100 µM (inactive) | > 76.9 µM (inactive) | > 100 µM (inactive) | –
6 | CSc1n[n+](C)cc(N)c1N | > 100 µM (inactive) | > 100 µM (inactive) | – | > 100 µM (inactive) | > 100 µM (inactive) | > 100 µM (inactive) | > 100 µM (inactive) | > 100 µM (inactive) | > 100 µM (inactive) | > 100 µM (inactive) | – | > 100 µM (inactive) | – | > 100 µM (inactive) | > 100 µM (inactive) | > 100 µM (inactive) | > 100 µM (inactive) | > 100 µM (inactive) | > 100 µM (inactive)
7 | c1ccc2c(c1)ncn2CCn1ccnc1 | > 100 µM (inactive) | > 100 µM (inactive) | > 100 µM (inactive) | > 100 µM (inactive) | > 100 µM (inactive) | > 100 µM (inactive) | > 100 µM (inactive) | 15.8 µM (inactive) | – | > 100 µM (inactive) | > 100 µM (inactive) | > 100 µM (inactive) | > 100 µM (inactive) | – | > 100 µM (inactive) | > 100 µM (inactive) | > 100 µM (inactive) | > 100 µM (inactive) | –
8 | COc1ccc(C2=N/C(=C\c3ccccc3)C(=O)O2)cc1 | – | 53.7 µM (inactive) | – | 16.7 µM (inactive) | – | > 100 µM (inactive) | > 100 µM (inactive) | 37.1 µM (inactive) | 17.3 µM (inactive) | – | > 100 µM (inactive) | > 100 µM (inactive) | 40.8 µM (inactive) | – | > 100 µM (inactive) | 75.9 µM (inactive) | – | – | –
9 | N#Cc1c(N)nc(Sc2ccccc2N)c(C#N)c1-c1ccccc1 | – | – | 14.8 µM (inactive) | 11.5 µM (inactive) | 35.7 µM (inactive) | 10.6 µM (inactive) | 28.2 µM (inactive) | 15.9 µM (inactive) | 21 µM (inactive) | – | – | 46.3 µM (inactive) | – | 15.7 µM (inactive) | 24.5 µM (inactive) | 15 µM (inactive) | 12.9 µM (inactive) | 13.5 µM (inactive) | –
10 | Cc1ccc2c(c1)Nc1ccccc1P2(=O)O | > 100 µM (inactive) | > 100 µM (inactive) | > 100 µM (inactive) | > 100 µM (inactive) | > 100 µM (inactive) | – | > 100 µM (inactive) | > 100 µM (inactive) | > 100 µM (inactive) | > 100 µM (inactive) | > 100 µM (inactive) | > 100 µM (inactive) | – | > 100 µM (inactive) | > 100 µM (inactive) | > 100 µM (inactive) | > 100 µM (inactive) | > 100 µM (inactive) | > 100 µM (inactive)
11 | OC1CN2CCS[C@H]2C(O)C1O (stereo partly specified) | > 100 µM (inactive) | > 100 µM (inactive) | > 100 µM (inactive) | > 100 µM (inactive) | > 100 µM (inactive) | – | > 100 µM (inactive) | > 100 µM (inactive) | > 100 µM (inactive) | > 100 µM (inactive) | > 100 µM (inactive) | > 100 µM (inactive) | > 100 µM (inactive) | > 100 µM (inactive) | > 100 µM (inactive) | > 100 µM (inactive) | > 100 µM (inactive) | > 100 µM (inactive) | –
12 | Cc1ccc(Nc2nc(=S)[nH]c3[nH]ncc23)cc1 | 32.2 µM (inactive) | 50.4 µM (inactive) | 85.5 µM (inactive) | > 100 µM (inactive) | 39.5 µM (inactive) | 37.3 µM (inactive) | 48.3 µM (inactive) | 90.4 µM (inactive) | 36.1 µM (inactive) | 66.1 µM (inactive) | > 100 µM (inactive) | > 100 µM (inactive) | 77.1 µM (inactive) | 91.2 µM (inactive) | 42.5 µM (inactive) | 77.3 µM (inactive) | 37.5 µM (inactive) | > 100 µM (inactive) | –
13 | CC(=O)NNc1nc(C)c(C(=O)NNC(=O)C(=O)Nc2ccc(Cl)cc2)s1 | 31.8 µM (inactive) | 28.9 µM (inactive) | – | – | > 100 µM (inactive) | – | > 100 µM (inactive) | 47 µM (inactive) | 68.5 µM (inactive) | – | – | > 100 µM (inactive) | – | > 100 µM (inactive) | > 100 µM (inactive) | > 100 µM (inactive) | 53 µM (inactive) | > 100 µM (inactive) | –
14 | CSC(=S)OC1C(CO[Si](C)(C)C(C)(C)C)OC2OC(C)(C)OC21 (stereo unspecified) | 15.8 µM (inactive) | 17 µM (inactive) | 33.5 µM (inactive) | 14.7 µM (inactive) | 19.2 µM (inactive) | 16.3 µM (inactive) | 40.6 µM (inactive) | 49.4 µM (inactive) | 13.7 µM (inactive) | – | 20.6 µM (inactive) | 21.3 µM (inactive) | – | 18.5 µM (inactive) | 11.4 µM (inactive) | 21.3 µM (inactive) | 15.7 µM (inactive) | 19.5 µM (inactive) | 29.2 µM (inactive)
15 | CCOC(=O)c1sc2nc(SC)nc3c2c1NC(=O)CN3c1ccc(F)cc1 | 71.9 µM (inactive) | 26.4 µM (inactive) | 40.4 µM (inactive) | – | 68.9 µM (inactive) | 87.3 µM (inactive) | 8.18 µM (inactive) | 21.4 µM (inactive) | > 100 µM (inactive) | – | 18.8 µM (inactive) | 41.7 µM (inactive) | 27.1 µM (inactive) | 26.4 µM (inactive) | 44.6 µM (inactive) | 34.6 µM (inactive) | 38.3 µM (inactive) | – | 37.9 µM (inactive)
16 | CN(C)/C(=N\C#N)N(Cc1ccccc1)Cc1ccccc1 | 24.9 µM (inactive) | > 100 µM (inactive) | – | – | 74 µM (inactive) | – | > 100 µM (inactive) | > 100 µM (inactive) | – | – | 42.6 µM (inactive) | > 100 µM (inactive) | – | 53.5 µM (inactive) | 50.9 µM (inactive) | 72.1 µM (inactive) | 36.6 µM (inactive) | > 100 µM (inactive) | –
17 | CNC(=O)OCC1C2=C(C(=O)C(C)=C(N)C2=O)N2CC3C(N3C)C12OC (stereo unspecified) | 3.19 µM (inactive) | 26.5 µM (inactive) | 2.47 µM (inactive) | 32.5 µM (inactive) | 13.6 µM (inactive) | 3.29 µM (inactive) | 47.9 µM (inactive) | 15.7 µM (inactive) | 0.867 µM (active) | 21.9 µM (inactive) | 21.3 µM (inactive) | 72.8 µM (inactive) | – | 10.9 µM (inactive) | 10.3 µM (inactive) | 12.4 µM (inactive) | 9.91 µM (inactive) | 4.02 µM (inactive) | –
18 | Nc1ncnc2c1ncn2C1OC(CO)CC1O (stereo unspecified) | 18 µM (inactive) | 39.3 µM (inactive) | 30.1 µM (inactive) | 20.3 µM (inactive) | 93.5 µM (inactive) | 6.08 µM (inactive) | 25.6 µM (inactive) | > 100 µM (inactive) | > 100 µM (inactive) | – | > 100 µM (inactive) | > 100 µM (inactive) | 25.5 µM (inactive) | 20 µM (inactive) | – | 19 µM (inactive) | 21.4 µM (inactive) | 17.5 µM (inactive) | 38.7 µM (inactive)
19 | CCOc1ccc2nc(-c3ccc(O)cc3)sc2c1 | 4.82 µM (inactive) | 46.9 µM (inactive) | > 100 µM (inactive) | > 100 µM (inactive) | > 100 µM (inactive) | > 100 µM (inactive) | – | – | – | – | 37 µM (inactive) | > 100 µM (inactive) | – | 69.3 µM (inactive) | 46.6 µM (inactive) | – | > 100 µM (inactive) | – | > 100 µM (inactive)
